Assay results published in paper PMC8942850, “Boron clusters as broadband membrane carriers” (Nature, 2022).

Key:
[1] = HPTS/DPX transport assay in zwitterionic EYPC vesicles; format: in vitro ADME; settings: for Y Conventional / Y Reverse: Extended Data Fig. 4d; for Ymax (%) maximal activity, carrier activity: 13 µM lipid, 10 mM Tris, 107 mM NaCl, HPTS fluorescence
Description: The well-established HPTS/DPX assay, which uses 8-hydroxypyrene-1,3,6-trisulfonate (HPTS) and p-xylene-bis-pyridinium (DPX), was implemented to monitor peptide-transport activation (Fig. 2a). […] A surfactant (Triton X-100) was added at the end of the experiment (t = 600 s) to release all vesicle content and normalize the fluorescence intensity data.
Fig. 2 Carrier activity obtained from the HPTS/DPX assay. a, Schematic representation of the transport of otherwise impermeable analytes facilitated by superchaotropic cluster anions with encapsulated HPTS/DPX probe/quencher pair used for signalling. […] Concentrations of carrier and cargo, when fixed, were 40 and 20 µM, respectively, unless explicitly stated. Source data
A thin lipid film was prepared by evaporating a lipid solution with a stream of nitrogen and then dried in vacuo overnight.
Fluorescence intensities were normalized to fractional emission as I(t) = (It − I0)/(I∞ − I0), where I0 = It before cluster addition and I∞ = It after lysis.
In the activator measurements, in which different activators were tested with the same cargo, the activator efficiency (Ea) is determined from their ability to activate the transport of an impermeable cargo molecule and is characterized by Ymax, its maximal activity, and EC50, the effective activator concentration. A potent activator reaches high Ymax at low EC50. To reflect both factors, the activator efficiency is defined as Ea = Ymax × (pEC50/fa), where pEC50 is the negative logarithm of EC50.
In the transport measurements, in which different types of cargo were tested with the same activator, the transport efficiency (Et) reports on the sensitivity of the cargo for being transported and is described by Ymax, the maximal activity, and EC50, the effective cargo concentration. An easily accessible cargo reaches high Ymax at low EC50. The transport efficiency is defined as a composition of both parameters according to Et = Ymax × (pEC50/ft), where pEC50 is the negative logarithm of EC50.
Extended Data Fig. 3 Transport activity. a, Transport activity, Y, in EYPC⊃HPTS/DPX vesicles as a function of cluster concentration at constant cargo concentration (WR7, 20 µM). b, Transport activity, Y, for B12Br12^2− (40 µM) in EYPC⊃HPTS/DPX vesicles as a function of the concentration of different cargo types; red lines correspond to the resulting fit with the Hill equation. Source data

[2] = system: Escherichia coli Top10 strain; experiment: Kanamycin A delivery in E. coli (OD570 growth); format: cell-based; settings: incubation with the cluster alone, up to 1 mM
Description: As a proof-of-principle, we investigated its potential to reduce the minimum inhibitory concentration of kanamycin A, an aminoglycoside antibiotic. Aminoglycosides function by binding to the bacterial 30S ribosomal subunit; consequently, effective passage through the cell wall and plasma membrane is essential for aminoglycosides to reach their intracellular targets. […]
A preculture of E. coli Top10 cells was incubated overnight in LB medium with 50 µg ml^−1 streptomycin sulfate. […] After 18 h, the optical density at 570 nm, as an indicator of bacterial growth, was measured with a Tecan Infinite F200Pro microplate reader. Data were normalized for each concentration of B12Br12^2− relative to the control condition without antibiotic.
Solid points indicate mean ± s.d. of three technical replicates. […] Cross-bars indicate mean ± s.d. of three independent experiments (two with technical triplicates, one with technical duplicates); values obtained in each experiment are represented by different shapes. c, Viability of HeLa cells after incubation with different doses of MMAF in the presence of 0, 5 and 10 μM B12Br12^2−. Solid points indicate mean ± s.d. of three technical replicates. d, Corresponding IC50 values of MMAF. […] Source data

B12Br12^2−
Ea activator efficiency ([1]; Ea = Ymax × (pEC50/fa), fa = 20.6, WR7 (20 μM) cargo, 10% error (SD)): 6.1 | Y Conventional ([1]; [B12Br12] 1.00E-04 M): 0.7375 | Y Reverse ([1]; [B12Br12] 1.00E-04 M): 0.7289 | Y Conventional ([1]; [B12Br12] 1.00E-05 M): 0.08156 | Y Reverse ([1]; [B12Br12] 1.00E-05 M): 0.07644 | Y Conventional ([1]; [B12Br12] 1.00E-08 M): 0.00214 | Y Reverse ([1]; [B12Br12] 1.00E-08 M): 9.09E-04 | Y Conventional ([1]; [B12Br12] 1.20E-04 M): 0.8093 | Y Reverse ([1]; [B12Br12] 1.20E-04 M): 0.8173 | Y Conventional ([1]; [B12Br12] 1.50E-04 M): 0.8756 | Y Conventional ([1]; [B12Br12] 2.00E-05 M): 0.1885 | Y Reverse ([1]; [B12Br12] 2.00E-05 M): 0.1615 | Y Conventional ([1]; [B12Br12] 2.50E-04 M): 0.8813 | Y Reverse ([1]; [B12Br12] 2.50E-04 M): 0.8905 | Y Conventional ([1]; [B12Br12] 3.00E-05 M): 0.3307 | Y Reverse ([1]; [B12Br12] 3.00E-05 M): 0.3469 | Y Conventional ([1]; [B12Br12] 4.00E-05 M): 0.4335 | Y Conventional ([1]; [B12Br12] 5.00E-06 M): 0.03975 | Y Conventional ([1]; [B12Br12] 6.00E-05 M): 0.5294 | Y Reverse ([1]; [B12Br12] 6.00E-05 M): 0.5266 | Y Conventional ([1]; [B12Br12] 8.00E-05 M): 0.6371 | Ymax (%) maximal activity, carrier activity ([1]; carrier concentration varied, WR7 (20 μM) as common cargo, EYPC⊃HPTS/DPX vesicles, pH 7.4, Hill analysis, 10% error (SD) unless stated, n.a. = no detectable activity, d.l. = dye leakage, no determination possible): 95 ± 5% | Ymax (%) maximal activity, carrier activity ([1]; carrier concentration varied, WR7 (20 μM) as common cargo, EYPC⊃HPTS/DPX vesicles, pH 7.4, Hill analysis, 10% error (SD) unless stated, n.a. = no detectable activity, d.l. = dye leakage, no determination possible, listed as brominated cluster): 95% | EC50 ([1]; read-out: EC50 (μM) effective carrier concentration to reach 50% of Ymax, carrier concentration varied, WR7 (20 μM) as common cargo, EYPC⊃HPTS/DPX vesicles, pH 7.4, Hill analysis, 10% error (SD) unless stated, n.a. = no detectable activity, d.l. = dye leakage, no determination possible): 48 µM | Bacterial survival, cluster alone [2]: did not affect bacterial survival
